Data published in US20250269000A1, “ANTI-TUMOUR RESPONSES TO CYTOKERATINS” (SCANCELL LIMITED, priority 2020, published 2025).
Where a SMILES comes first, the peptide text is derived from it. Where no end group is shown, it is not given here. [ ]: non-standard residue; d: D form. Cit = NC(=O)NCCC[C@H](N)C(=O)O

Experiments:
[1] = tested on: HHDII/DP4 transgenic mice; test: Ex vivo IFNγ ELISpot on splenocytes of peptide-immunised HHDII/DP4 mice; type: in vivo, mouse; settings: for IFNγ responses detected in immunised mice: 25 μg peptide s.c. with CpG/MPLA once a week for three weeks, ELISpot 7 days after third immunisation; for IFNγ response in the presence of the CD8 antibody / IFNγ response in the presence of the anti CD4 antibody: HHDII/DP4, blocking antibody 20 μg/mL; for cross-reactivity of the response to the wt version: HHDII/DP4 mice immunised with cit peptide; for IFNγ response to citrullinated peptide compared to media only: screening, HHDII/DP4 mice, 25 μg peptide with CpG/MPLA weekly for three weeks; for T cell responses in HLA-DP4 transgenic mice / reactivity to the unmodified wildtype sequence: summary statement
Method: The HHDII/HLA-DP4 transgenic strain of mouse as described in patent WO2013/017545 A1 (EMMA repository, France) and C57BL/6 mice (Charles River, UK) were used, aged between 8 and 12 weeks, and cared for by the staff at Nottingham Trent University. All work was carried out under a Home Office project licence. Peptides were dissolved in 10% dimethylformamide to 1 mg/mL and then emulsified (a series of dilutions) with the adjuvant CpG and MPLA 6 μg/mouse of each (Invivogen, UK). Peptides (25 μg/mouse) were injected subcutaneously at the base of the tail.
ELISpot assays were performed using murine IFNγ capture and detection reagents according to the manufacturer's instructions (Mabtech, Sweden). In brief, anti-IFNγ antibody was coated onto wells of a 96-well Immobilin-P plate. Synthetic peptides (at a variety of concentrations) and 5×10^5 per well splenocytes were added to the wells of the plate in triplicate. LPS at 5 μg/mL was used as a positive control. Peptide pulsed target cells were added where relevant at 5×10^4 per well in triplicate and plates incubated for 40 hours at 37° C. After incubation, captured IFNγ was detected by a biotinylated anti-IFNγ antibody and developed with a streptavidin alkaline phosphatase and chromogenic substrate. Lipopolysaccharide (LPS; 5 μg/mL) was used as a positive control. For blocking studies, anti-CD4 blocking antibody (RPA-T4) and anti-CD8 blocking antibody (2.43) from Bioxcell were used at 20 μg/mL. Spots were analysed and counted using an automated plate reader (Cellular Technologies Ltd).
HHDII/DP4 and C57BL/6 mice were immunised with human citrullinated peptides in combination with CpG/MPLA as an adjuvant. 25 μg of peptide was administered subcutaneously as a single immunisation given once a week for three weeks Mice were culled 7 days after the third immunisation, the immune response to each peptide was assessed by ex vivo IFNγ ELISpot (FIG. 2). We have previously shown that citrullinated peptides can induce responses in the transgenic DR4 mouse strain. Given that different mouse strains have different MHC repertoires, the transgenic strain HHDII/DP4 and non-transgenic C57BL/6 mice were used for screening.
To determine if the immune response to the Cyk8 peptides is specific to the citrullinated peptide and not the wild type (wt) version, HHDII/DP4 transgenic mice were immunised with Cyk8 101-120 cit, 133-151 cit, 217-236 cit, 371-388 cit, 381-399 cit or Cyk8 101 wt, 133-151 wt, 371-388 wt peptides. HHDII/DP4 mice received 25 μg peptide with CpG/MPLA subcutaneously once a week for three weeks. Mice were culled 7 days after the third immunisation, the immune response to each peptide was assessed by ex vivo ELISpot (FIGS. 3A and 3B).
To determine whether the response to Cyk8 8-26 cit, Cyk8 101-120 cit, Cyk8 133-151 cit, Cyk8 371-388 cit, Cyk8 381-399 cit is CD4 dependent HHDII/DP4 transgenic mice and C57BL/6 mice received 25 μg peptide subcutaneously in combination with CpG/MPLA as an adjuvant, once a week for three weeks (FIG. 6A HHDII/DP4, FIG. 6B C57BL/6). Mice were culled 7 days after the third immunisation, an ELISpot assay was performed in the presence of an anti CD4 or CD8 antibody. […]

[2] = tested on: B16 HHDII/iDP4 tumour cells; test: Tumour challenge, B16 HHDII/iDP4 in HHDII/DP4 mice; type: in vivo; settings: immunised tumour bearing HHDII/DP4 mice
From the text: HHDII/DP4 mice were challenged with B16 tumour with IFNγ inducible DP4. Four days later the HHDII/DP4 mice were immunised with Cyk8 371-388 cit or Cyk8 371-388 wt peptide on days 4, 11 and 18. Overall survival (A), tumour volume (B) at day 29 and tumour volume throughout the study (C), post tumour implant are shown for unimmunised control mice and mice immunised with either Cyk8 371-388 cit peptide or Cyk8 371-388 wt peptide. Statistical differences between immunised and control mice were determined by Mantel-Cox test, p values are shown. The tumour volume medians and p values are shown as determined by Mann Whitney U test, n=10 in all group.
HHDII/DP4 mice were challenged with B16 tumour with IFNγ inducible DP4. Four days later the HHDII/DP4 mice were immunised with Cyk8 371-388 cit peptide on days 4, 11 and 18. Overall survival (A), tumour volume (B) at day 24 and tumour volume throughout the study (C), post tumour implant are shown for unimmunised control mice and mice immunised with Cyk8 101-120 cit peptide. Statistical differences between immunised and control mice were determined by Mantel-Cox test, p values are shown. The tumour volume medians and p values are shown as determined by Mann Whitney U test, n=10 in all group.
For tumour challenge experiments, mice were challenged with 1×10^5 B16 HHDII/iDP4 cells subcutaneously on the right flank […] before primary immunisation (unless stated otherwise) and then immunised as described above. Tumour growth was monitored at 3-4 days intervals and mice humanely euthanised once tumour reached ≥10 mm in diameter.
The effect of immunisation with Cyk8 371-388 (cit and wt) on the growth of the mouse B16 melanoma cell line transfected with IFNγ inducible human DP4 (iDP4) was assessed in HHDII/DP4 transgenic mice (FIG. 9A). […]
The effect of immunisation with Cyk8 101-120 cit on the growth of the mouse B16 melanoma cell line transfected with IFNγ inducible human DP4 (iDP4) was assessed in HHDII/DP4 transgenic mice (FIG. 10A). […]

[3] = tested on: splenocytes of immunised HHDII/DP4 mice; test: Peptide titration (avidity of T cell response) by IFNγ ELISpot; type: cell-based, mouse; settings: peptide titration 0.001 to 10 μg/ml
Method: Transgenic mouse strains expressing HHDII/DP4 and parental C57BL mice were used to screen for IFNγ responses to peptide (A and B respectively). Mice were immunised with peptide pools of up to 2-3 non-overlapping human Cyk8 citrullinated peptides over three weeks. Splenocytes were harvested 21 days after the initial dose was administered. Ex vivo responses to stimulation with human Cyk8 cit peptides was assessed by IFNγ ELISpot. Media only responses were used as a negative control. n≥3 symbol represents mean response for individual mice, line represents median value between mice. Statistical significance of peptide response was compared to media only responses for each pool and determined using ANOVA with Dunnett's post-hoc test * […], ** p<0.01, *** p<0.001, **** p<0.0001, only significant p values are shown. […]
ELISpot assays were performed using murine IFNγ capture and detection reagents according to the manufacturer's instructions (Mabtech, Sweden). […] After incubation, captured IFNγ was detected by a biotinylated anti-IFNγ antibody and developed with a streptavidin alkaline phosphatase and chromogenic substrate. […] Spots were analysed and counted using an automated plate reader (Cellular Technologies Ltd).
Significant IFNγ responses were detected to human Cyk8 citrullinated peptides in transgenic HHDII/DP4 mice (FIG. 2A) and C57BL/6 mice (FIG. 2B). […]

KLALDIEIATY-cit-KLLEGEE (KLALDIEIATY[Cit]KLLEGEE) [Cyk8 381-399 cit, Cyk8 381-399, citrullinated at position 392]
IFNγ responses detected in immunised mice [1]: Moderate to high
IFNγ response in the presence of the CD8 antibody [1]: significantly reduced
IFNγ response in the presence of the anti CD4 antibody [1]: significantly reduced
cross-reactivity of the response to the wt version [1]: no cross-reactivity
IFNγ response to citrullinated peptide compared to media only [1]: significant immune responses
T cell responses in HLA-DP4 transgenic mice [1]: potent T cell responses
reactivity to the unmodified wildtype sequence [1]: minimal reactivity

CC[C@H](C)[C@H](NC(=O)[C@H](Cc1ccccc1)NC(=O)[C@H](CO)NC(=O)[C@H](C)NC(=O)[C@H](Cc1ccccc1)NC(=O)[C@@H](N)CCCCN)C(=O)N[C@@H](CC(=O)O)C(=O)N[C@@H](CCCCN)C(=O)N[C@H](C(=O)N[C@@H](CCCNC(N)=O)C(=O)N[C@@H](Cc1ccccc1)C(=O)N[C@@H](CC(C)C)C(=O)N[C@@H](CCC(=O)O)C(=O)N[C@@H](CCC(N)=O)C(=O)N[C@@H](CCC(N)=O)C(=O)N[C@@H](CC(N)=O)C(=O)N[C@@H](CCCCN)C(=O)N[C@@H](CCSC)C(=O)N[C@@H](CC(C)C)C(=O)N[C@@H](CCC(=O)O)C(=O)O)C(C)C [Cyk8 101-120 cit, KFASFIDKV-cit-FLEQQNKMLE] (H-KFASFIDKV[Cit]FLEQQNKMLE-OH)
associated toxicity [2]: no associated toxicity

CC[C@H](C)[C@H](NC(=O)[C@H](CCC(=O)O)NC(=O)[C@@H](NC(=O)[C@H](CC(=O)O)NC(=O)[C@H](CC(C)C)NC(=O)[C@H](C)NC(=O)[C@H](CC(C)C)NC(=O)[C@H](CCCCN)NC(=O)[C@@H](NC(=O)[C@H](CC(N)=O)NC(=O)[C@H](CCSC)NC(=O)[C@H](CC(C)C)NC(=O)[C@H](CCC(=O)O)NC(=O)[C@H](CCC(N)=O)NC(=O)[C@H](Cc1ccc(O)cc1)NC(=O)[C@H](CCC(=O)O)NC(=O)[C@H](CCCNC(=N)N)NC(=O)[C@@H](N)CC(C)C)C(C)C)[C@@H](C)CC)C(=O)O [Cyk8 371-388 wt, LREYQELMNVKLALDIEI, reference compound] (H-LREYQELMNVKLALDIEI-OH)
associated toxicity [2]: no associated toxicity

RSNMDNMFESYINNLRRQL (listed as Homo sapiens) [Cyk8 131-15 wt, wild type (unmodified) Cyk8 133-151 peptide, reference compound]
IFNγ responses detected in immunised mice [1]: Low to moderate

cit-SNMDNMFESYINNL-cit-cit-QL ([Cit]SNMDNMFESYINNL[Cit][Cit]QL) [Cyk8 133-151 cit, Cyk8 133-151, citrullinated at position 133, 148 and 149]
IFNγ responses detected in immunised mice [1]: Moderate to high
IFNγ response in the presence of the CD8 antibody [1]: not significantly reduced
IFNγ response in the presence of the anti CD4 antibody [1]: not significantly reduced
cross-reactivity of the response to the wt version [1]: no cross-reactivity
IFNγ response to citrullinated peptide compared to media only [1]: significant immune responses
T cell responses in HLA-DP4 transgenic mice [1]: potent T cell responses
reactivity to the unmodified wildtype sequence [1]: minimal reactivity
log EC50 (avidity of T cell response) [3]: -6.0 to-6.5 M

KFASFIDKVRFLEQQNKMLE (listed as Homo sapiens) [Cyk8 101-120 wt, wild type (unmodified) Cyk8 101-120 peptide, reference compound]
IFNγ responses detected in immunised mice [1]: Low to moderate

LTDEINFL-cit-QLYEEEI-cit-ELQ (LTDEINFL[Cit]QLYEEEI[Cit]ELQ) [Cyk8 217-236 cit, Cyk8 217-236, citrullinated at positions 225 and 233]
IFNγ responses detected in immunised mice [1]: Moderate to high
cross-reactivity of the response to the wt version [1]: no cross-reactivity
IFNγ response to citrullinated peptide compared to media only [1]: significant immune responses
T cell responses in HLA-DP4 transgenic mice [1]: potent T cell responses
reactivity to the unmodified wildtype sequence [1]: minimal reactivity
log EC50 (avidity of T cell response) ([3]; unit not given): -5.0 to-5.9

CC[C@H](C)[C@H](NC(=O)[C@H](CCC(=O)O)NC(=O)[C@@H](NC(=O)[C@H](CC(=O)O)NC(=O)[C@H](CC(C)C)NC(=O)[C@H](C)NC(=O)[C@H](CC(C)C)NC(=O)[C@H](CCCCN)NC(=O)[C@@H](NC(=O)[C@H](CC(N)=O)NC(=O)[C@H](CCSC)NC(=O)[C@H](CC(C)C)NC(=O)[C@H](CCC(=O)O)NC(=O)[C@H](CCC(N)=O)NC(=O)[C@H](Cc1ccc(O)cc1)NC(=O)[C@H](CCC(=O)O)NC(=O)[C@H](CCCNC(N)=O)NC(=O)[C@@H](N)CC(C)C)C(C)C)[C@@H](C)CC)C(=O)O [Cyk8 371-388 cit, L-cit-EYQELMNVKLALDIEI] (H-L[Cit]EYQELMNVKLALDIEI-OH)
associated toxicity [2]: no associated toxicity
